Patent US12485123B2, “1H-pyrazolo[4,3-d]pyrimidine compounds as toll-like receptor 7 (TLR7) agonists” (BRISTOL-MYERS SQUIBB COMPANY, priority 2020, dated 2025)

Assays:
[1] = biological target: T1, human TLR7 (Homo sapiens, UniProt Q9NYK1); assay: Human TLR7 agonist activity reporter assay (HEK-Blue TLR7 cells, SEAP reporter); type: cell-based; conditions: human TLR7 (hTLR7) reporter assay, SEAP readout after 18 h, average where assay repeated, read-out: TLR7 Agonism EC50
T1 construct: host or cells: HEK-Blue TLR7 cells (engineered human embryonic kidney cells)
T1 sequence (Q9NYK1 27-1049): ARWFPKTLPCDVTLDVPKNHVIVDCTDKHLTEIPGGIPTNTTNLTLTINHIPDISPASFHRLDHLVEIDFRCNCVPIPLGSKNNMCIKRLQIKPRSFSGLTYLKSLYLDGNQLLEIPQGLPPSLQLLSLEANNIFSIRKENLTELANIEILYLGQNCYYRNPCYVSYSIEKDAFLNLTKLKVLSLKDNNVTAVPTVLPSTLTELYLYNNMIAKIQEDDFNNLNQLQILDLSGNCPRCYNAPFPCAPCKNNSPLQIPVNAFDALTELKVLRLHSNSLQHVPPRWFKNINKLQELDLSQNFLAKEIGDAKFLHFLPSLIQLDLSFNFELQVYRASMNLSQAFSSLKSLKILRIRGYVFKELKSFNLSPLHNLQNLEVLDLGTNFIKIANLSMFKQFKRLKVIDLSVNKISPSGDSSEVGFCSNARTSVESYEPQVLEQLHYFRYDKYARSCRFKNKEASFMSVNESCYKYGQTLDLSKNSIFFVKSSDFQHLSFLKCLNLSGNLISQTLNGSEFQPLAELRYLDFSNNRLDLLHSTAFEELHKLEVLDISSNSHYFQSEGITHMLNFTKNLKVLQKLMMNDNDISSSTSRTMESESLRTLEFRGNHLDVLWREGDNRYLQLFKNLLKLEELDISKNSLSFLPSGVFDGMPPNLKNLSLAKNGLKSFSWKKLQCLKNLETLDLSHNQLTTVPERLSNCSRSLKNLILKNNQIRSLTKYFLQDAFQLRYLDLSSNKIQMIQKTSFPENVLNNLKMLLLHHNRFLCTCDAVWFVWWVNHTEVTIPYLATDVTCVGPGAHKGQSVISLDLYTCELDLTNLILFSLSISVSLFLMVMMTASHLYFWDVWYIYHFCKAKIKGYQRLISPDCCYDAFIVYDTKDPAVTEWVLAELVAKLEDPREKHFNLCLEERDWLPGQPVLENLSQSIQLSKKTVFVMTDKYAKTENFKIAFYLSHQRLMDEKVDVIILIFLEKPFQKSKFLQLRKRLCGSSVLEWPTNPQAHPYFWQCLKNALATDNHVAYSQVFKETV
Procedure: Human TLR7 Agonist Activity Assay
This procedure describes a method for assaying human TLR7 (hTLR7) agonist activity of the compounds disclosed in this specification.
HEK-Blue™ TLR7 cells were added to each well of a 384-well tissue-culture plate (15,000 cells per well) and incubated 16-18 h at 37° C., 5% CO2. Compounds (100 nl) were dispensed into wells containing the HEK-Blue™ TLR cells and the treated cells were incubated at 37° C., 5% CO2. After 18 h treatment ten microliters of freshly-prepared Quanti-Blue™ reagent (Invivogen) was added to each well, incubated for 30 min (37° C., 5% CO2) and SEAP levels measured using an Envision plate reader (OD=620 nm).

[2] = tested on: CD69; assay: Induction of CD69 in human whole blood; type: cell-based; conditions: 17 hrs incubation, CD69 surface staining, 100% set to 1 uM of resiquimod, average where assay repeated, read-out: hWB CD69 EC50
Procedure: Induction of Type I Interferon Genes (MX-1) and CD69 in Human Blood
The induction of Type I interferon (IFN) MX-1 genes and the B-cell activation marker CD69 are downstream events that occur upon activation of the TLR7 pathway. The following is a human whole blood assay that measures their induction in response to a TLR7 agonist.
Heparinized human whole blood was harvested from human subjects and treated with test TLR7 agonist compounds at 1 mM. The blood was diluted with RPMI 1640 media and Echo was used to predot 10 nL per well giving a final concentration of 1 uM (10 nL in 10 uL of blood). After mixing on a shaker for 30 sec, the plates were covered and placed in a 37° C. chamber for o/n=17 hrs. Fixing/lysis buffer was prepared (5×→1× in H2O, warm at 37° C.; Cat #BD 558049) and kept the perm buffer (on ice) for later use.
For surface markers staining (CD69): prepared surface Abs: 0.045 ul hCD14-FITC (ThermoFisher Cat #MHCD1401)+0.6 ul hCD19-ef450 (ThermoFisher Cat #48-0198-42)+1.5 ul hCD69-PE (cat #BD555531)+0.855 ul FACS buffer. Added 3 ul/well, spin 1000 rpm for 1 min and mixed on shaker for 30 sec, put on ice for 30 min. Stop stimulation after 30 minutes with 70 uL of prewarmed 1× fix/lysis buffer and use Feliex mate to resuspend (15 times, change tips for each plate) and incubate at 37 C for 10 minutes.
Centrifuge at 2000 rpm for 5 minutes aspirate with HCS plate washer, mix on shaker for 30 sec and then wash with 70 uL in dPBS and pelleted 2×s (2000 rpm for 5 min) and 50 ul wash in FACS buffer pelleted 1×s (2000 rpm for 5 min). Mix on shaker for 30 sec. For Intracellular markers staining (MX-1): Add 50 ul of BD Perm buffer III and mix on shaker for 30 sec. Incubate on ice for 30 minutes (in the dark). Wash with 50 uL of FACS buffer 2× (spin @2300 rpm×5 min after perm) followed by mixing on shaker for 30 sec. Resuspended in 20 ul of FACS buffer containing MX1 antibody ( )(4812)-Alexa 647: Novus Biologicals #NBP2-43704AF647) 20 ul FACS bf+0.8 ul hIgG+0.04 ul MX-1. Spin 1000 rpm for 1 min, mix on shaker for 30 se and the samples were incubated at RT in the dark for 45 minutes followed by washing 2×FACS buffer (spin @2300 rpm×5 min after perm). Resuspend 20 ul (35 uL total per well) of FACS buffer and cover with foil and place in 4° C. to read the following day. Plates were read on iQuePlus. The results were loaded into toolset and […] curves are generated in curve master. The y-axis 100% is set to 1 uM of resiquimod.

Row | Structure (SMILES) | EC50 [1] [nM] | EC50 [2] [nM]
1 | CCC[C@@H](CCO)Nc1nc(N)nc2cnn(Cc3ccc(C(=O)N4CC5(COC5)C4)c4cccnc34)c12 [Compound 127, (3S)-3-({5-amino-1-[(5-{2-oxa-6-azaspiro[3.3]heptane-6-carbonyl}quinolin-8-yl)methyl]-1H-pyrazolo[4,3-d]pyrimidin-7-yl}amino)hexan-1-ol] | 54.8 | 91.9
2 | CCC[C@@H](CCO)Nc1nc(N)nc2cnn(Cc3ccc(C(=O)N4CC(CCOC)C4)c4cccnc34)c12 [Compound 128, (3S)-3-{[5-amino-1-({5-[3-(2-methoxyethyl)azetidine-1-carbonyl]quinolin-8-yl}methyl)-1H-pyrazolo[4,3-d]pyrimidin-7-yl]amino}hexan-1-ol] | 54.6 | 102
3 | CCC[C@@H](CCO)Nc1nc(N)nc2cnn(Cc3ccc(C(=O)NCCN)c4cccnc34)c12 [Compound 133, 8-[(5-amino-7-{[(3S)-1-hydroxyhexan-3-yl]amino}-1H-pyrazolo[4,3-d]pyrimidin-1-yl)methyl]-N-(2-aminoethyl)quinoline-5-carboxamide] | 409 | 593
4 | CCC[C@@H](CCO)Nc1nc(N)nc2cnn(Cc3ccc(C(=O)N4CCC(CCO)CC4)c4cccnc34)c12 [Compound 134, (3S)-3-{[5-amino-1-({5-[4-(2-hydroxyethyl)piperidine-1-carbonyl]quinolin-8-yl}methyl)-1H-pyrazolo[4,3-d]pyrimidin-7-yl]amino}hexan-1-ol] | 35.4 | 194
5 | CCC[C@@H](CCO)Nc1nc(N)nc2cnn(Cc3ccc(C(=O)N4CC(O)C4)c4cccnc34)c12 [Compound 135, 1-{8-[(5-amino-7-{[(3S)-1-hydroxyhexan-3-yl]amino}-1H-pyrazolo[4,3-d]pyrimidin-1-yl)methyl]quinoline-5-carbonyl}azetidin-3-ol] | 126 | 80.1
6 | CCC[C@@H](CCO)Nc1nc(N)nc2cnn(Cc3ccc(C(=O)NCCCCO)c4cccnc34)c12 [Compound 136, 8-[(5-amino-7-{[(3S)-1-hydroxyhexan-3-yl]amino}-1H-pyrazolo[4,3-d]pyrimidin-1-yl)methyl]-N-(4-hydroxybutyl)quinoline-5-carboxamide] | 231 | 418
7 | CCC[C@@H](CCO)Nc1nc(N)nc2cnn(Cc3ccc(C(=O)N4CCNCC4)c4cccnc34)c12 [Compound 137, (3S)-3-[(5-amino-1-{[5-(piperazine-1-carbonyl)quinolin-8-yl]methyl}-1H-pyrazolo[4,3-d]pyrimidin-7-yl)amino]hexan-1-ol] | 60.9 | 20.4
8 | Cc1cc(CNc2nc(N)nc3cnn(Cc4ccc(C(=O)N5CC6(CN(C)C6)C5)c5cccnc45)c23)no1 [Compound 138, N7-[(5-methyl-1,2-oxazol-3-yl)methyl]-1-[(5-{6-methyl-2,6-diazaspiro[3.3]heptane-2-carbonyl}quinolin-8-yl)methyl]-1H-pyrazolo[4,3-d]pyrimidine-5,7-diamine] | 275 | 41.7
9 | CCC[C@@H](CCO)Nc1nc(N)nc2cnn(Cc3ccc(CN4CCN(CCO)CC4)c4cccnc34)c12 [Compound 139, (3S)-3-({5-amino-1-[(5-{[4-(2-hydroxyethyl)piperazin-1-yl]methyl}quinolin-8-yl)methyl]-1H-pyrazolo[4,3-d]pyrimidin-7-yl}amino)hexan-1-ol] | 5.5 | 16.2
10 | CCC[C@@H](CCO)Nc1nc(N)nc2cnn(Cc3ccc(CN4C[C@H]5CN(C)C[C@H]5C4)c4cccnc34)c12 [Compound 140, (3S)-3-({1-[(5-{[(3aR,6aS)-5-methyl-octahydropyrrolo[3,4-c]pyrrol-2-yl]methyl}quinolin-8-yl)methyl]-5-amino-1H-pyrazolo[4,3-d]pyrimidin-7-yl}amino)hexan-1-ol] | 8.3 | 21.1
11 | CCC[C@@H](CCO)Nc1nc(N)nc2cnn(Cc3ccc(C4CCNCC4)c4cccnc34)c12 [Compound 141, (3S)-3-[(5-amino-1-{[5-(piperidin-4-yl)quinolin-8-yl]methyl}-1H-pyrazolo[4,3-d]pyrimidin-7-yl)amino]hexan-1-ol] | 21.7 | 0.3
